The source of these data is US20220016241A1, “COMPOSITIONS AND METHODS FOR REDUCING ANTIGEN-SPECIFIC IMMUNOGENICITY” (The Research Foundation for The State University of New York, priority 2013, published 2022).

In one data set the test system is anti-Ova antibody titers. Nature of the data set: Effect of OPLS on immunogenicity of ovalbumin after SC administration. The data set is classed as in vivo, SW mice. The settings on record: 5 mg OPLS with 1 μg Ova s.c. The protocol:
Methods: 14 SW mice between 6 and 8 weeks of age were divided into 2 groups: group one received 1 μg OVA SC in the abdominal region. Group two received 1 μg OVA/5 mg OPLS SC in the abdominal region. This treatment was given one day 1, 8, 10 and 12. Three days after the last injection the animals were sacrificed. Blood was centrifuged at 7500 rpm for 5 min at 4° C. Plasma was then removed and stored at -80° C. until analysis Titers values were obtained using an anti-Ova IgG […] analysis kit as per the manufacturers instruction (alphadiagnostic international). Statistics was done on the arithmetic mean of the log transformed data, graphs are reported as geometric means. Non-responders were given the value of the plate specific factor for uniformity.

The next data set addresses T1, OVA (Gallus gallus, UniProt P01012).
T1 construct: purchased Sigma (St. Louis, Mo.)
As to the kind of experiment: Binding of OPLS to OVA by fluorescence spectroscopy. The protocol: The binding of OPLS to several therapeutic proteins was evaluated using fluorescence spectroscopy (FIG. 2).

A short description of data set [1]: Plasma creatine kinase and injection site after 28 daily s.c. injections of OPLS. The format is in vivo, CD-1 mice. From the text:
FIG. 22. Plasma Creatine Kinase (CK: an enzyme with high expression in myocytes, elevation of plasma CK is an indication of damage to muscle tissue) activity levels after 28 daily s.c. injections of OPLS to CD-1 mice.

A further data set concerns anti-GAA antibody titers. As to the kind of experiment: Effect of OPLS on immunogenicity of GAA protein. The data set is classed as in vivo, mice. The settings on record: 5 mg dose with 1 μg GAA, 4 weekly s.c., 2 week rest. The protocol: Materials and Methods: GAA Source: Full length recombinant rhGAA was produced in Human Kidney Embryo Cells for our use by Creative Biomart (Shirley, N.Y.); OPLS Source: Sigma-Aldrich (St. Louis, Mo.). n=8 animals/group were immunized with 4 weekly s.c. injections of 1 μg of GAA in 100 μl of either sterile TRIS for the free group or in 5 mg OPLS in sterile TRIS for the OPLS-GAA group. A group of 8 mice will receive the same dose of CBrhGAA in 5 mg O-phospho-D-serine (OPDS) solution as a negative control. After a 2 week rest period, a blood sample from the saphenous vein will be collected. Samples were stored at −80° C. until analysis. These samples were then analyzed for anti-GAA Ab titers. Anti-GAA antibody titers were measured as follows: ELISA plate (maxisorp, NUNC) was coated with 50 μl of 5 μg/ml of sterile rhGAA in sodium carbonate-bicarbonate buffer pH =9.6. The plate was incubated overnight at 4° C. The plate was washed six times with PBS containing 0.05% Tween 20 (PBS-T, 250 μl/well) using an automated plate washer. The plate was blocked with PBS containing 1% BSA (300 μl/well) as the block buffer for 2 hr at 37° C. […] The reaction was stopped with 2 N sulfuric acid and read immediately at 450 nm using a micro-plate reader. The titer values are quantitated using a statistical endpoint method as described by Frey et al. Control plasma samples were run on each plate. […]

Structures are written as SMILES. pKd: −log10 of the molar value.

T1 sequence (P01012 whole entry): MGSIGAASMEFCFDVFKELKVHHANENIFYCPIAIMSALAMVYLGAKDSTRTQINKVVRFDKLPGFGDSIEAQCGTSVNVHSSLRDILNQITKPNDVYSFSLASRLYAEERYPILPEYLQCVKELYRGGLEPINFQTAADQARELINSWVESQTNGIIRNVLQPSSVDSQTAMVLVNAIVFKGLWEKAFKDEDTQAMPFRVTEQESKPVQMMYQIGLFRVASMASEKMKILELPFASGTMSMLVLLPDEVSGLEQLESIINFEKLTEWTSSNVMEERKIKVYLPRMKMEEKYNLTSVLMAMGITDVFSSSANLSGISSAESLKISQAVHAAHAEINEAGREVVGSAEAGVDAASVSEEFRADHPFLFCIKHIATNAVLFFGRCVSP

As usually defined, the pKd is −log10 of the Kd, conventionally taken in molar units. For the compound `N[C@@H](COP(=O)(O)O)C(=O)O` [OPLS, O-Phospho-L-Serine], in the data set on anti-Ova antibody titers, the “Anti-Ova antibody titers vs Ova alone” value is “lower”. In addition, the pKd at OVA (fluorescence titration, FIG. 2, read-out: Dissociation constant (Kd) of OPLS binding to OVA) was 2.59. In addition, at OVA (spectroscopic titration), the “Binding affinity of OVA for OPLS” value is listed as “lowest affinity”. For the same compound, in data set [1], the “Plasma creatine kinase activity vs vehicle” value is reported as “No statistical significance”. Further, the “Injection site pathology at necropsy” value in data set [1] (macroscopic evaluation) is “No visible injection site pathology”. Further, the “Anti-GAA antibody titers vs GAA alone” value in the data set on anti-GAA antibody titers is “lower”.
